Reference: ChEMBL document CHEMBL5380808, “Design, Synthesis, and Biological Activity of Marinacarboline Analogues as STAT3 Pathway Inhibitors for Docetaxel-Resistant Triple-Negative Breast Cancer” (J Med Chem, 2023)
The source made the active and inactive calls. No cut-off for these calls is given here.

Key:
[1] = tested on: MDA-MB-231; experiment: Antiproliferative activity against human MDA-MB-231 cells assessed as reduction in cell viability incubated for 72 hrs by sulforhodamine B assay; format: functional, cell-based; settings: MDA-MB-231, 72 h
[2] = Cytotoxicity against human MRC5 cells assessed as reduction in cell viability incubated for 72 hrs by sulforhodamine B assay; format: toxicity, cell-based
[3] = Selectivity index, ratio of IC50 for cytotoxicity against human MRC5 cells to IC50 for antiproliferative activity against human MDA-MB-231 cells; format: toxicity, cell-based; settings: MRC5 cells and MDA-MB-231 cells, read-out: Ratio IC50
[4] = Antiproliferative activity against docetaxel-resistant human MDA-MB-231-DTR cells assessed as reduction in cell viability incubated for 72 hrs by sulforhodamine B assay; format: functional, cell-based; settings: MDA-MB-231, 72 h
[5] = biological target: Signal transducer and activator of transcription 3 (Homo sapiens) (UniProt P40763); experiment: Inhibition of STAT3 phosphorylation at Y705 residue in human MDA-MB-231 cells assessed as decrease in phosphorylated STAT3 level at 5 uM incubated for 24 hrs by Western blot analysis; format: cell-based
[6] = Antiproliferative activity against […] cells assessed as reduction in cell viability incubated for 72 hrs by MTT assay; format: functional, cell-based
[7] = tested on: MDA-MB-231; experiment: Antitumor activity against docetaxel-resistant human MDA-MB-231-DTR cells xenografted in BALB/c mouse assessed as tumor growth inhibition at 5 mg/kg, ip daily for 12 days; format: functional, organism-based; settings: time 12.0 day
[8] = tested on: MDA-MB-231; experiment: Antiproliferative activity against human MDA-MB-231 cells assessed as reduction in cell viability incubated for 72 hrs by MTT assay; format: functional, cell-based; settings: MDA-MB-231, 72 h
[9] = biological target: Signal transducer and activator of transcription 3 (Homo sapiens) (UniProt P40763); experiment: Binding affinity to STAT3 in docetaxel-resistant human MDA-MB-231-DTR cells at 20 uM incubated for 1 hrs by streptavidin bead based pull-down assay; format: cell-based

Signal transducer and activator of transcription 3 (Homo sapiens), sequence (P40763 whole entry): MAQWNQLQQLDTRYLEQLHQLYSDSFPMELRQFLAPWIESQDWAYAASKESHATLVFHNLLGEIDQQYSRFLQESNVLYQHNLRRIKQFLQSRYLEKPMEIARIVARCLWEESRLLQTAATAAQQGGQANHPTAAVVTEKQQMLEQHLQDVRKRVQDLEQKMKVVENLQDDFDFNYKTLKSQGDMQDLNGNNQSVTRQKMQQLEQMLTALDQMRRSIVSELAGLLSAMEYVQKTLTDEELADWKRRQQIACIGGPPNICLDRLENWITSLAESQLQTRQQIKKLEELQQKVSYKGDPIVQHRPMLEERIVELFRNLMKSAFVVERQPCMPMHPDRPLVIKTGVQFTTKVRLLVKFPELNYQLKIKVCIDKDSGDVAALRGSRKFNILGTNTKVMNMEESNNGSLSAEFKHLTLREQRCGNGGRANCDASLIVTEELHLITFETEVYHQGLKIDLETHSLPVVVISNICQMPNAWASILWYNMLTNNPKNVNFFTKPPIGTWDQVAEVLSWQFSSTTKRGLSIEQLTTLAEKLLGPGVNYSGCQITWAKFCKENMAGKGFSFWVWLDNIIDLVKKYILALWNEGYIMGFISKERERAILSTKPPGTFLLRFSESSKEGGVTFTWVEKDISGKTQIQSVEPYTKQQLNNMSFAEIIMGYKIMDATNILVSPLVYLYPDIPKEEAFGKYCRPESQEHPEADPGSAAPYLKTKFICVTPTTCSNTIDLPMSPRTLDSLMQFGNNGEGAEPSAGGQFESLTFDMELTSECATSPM

CC(=O)c1nc(C(=O)NCc2ccc3[nH]ccc3c2)cc2c1[nH]c1ccccc12
IC50 [1]: 14.9 µM
IC50 at 72 h [2]: > 50 µM
selectivity ratio [3]: > 3.36

CC(=O)c1nc(C(=O)N(Cc2ccccc2)Cc2ccccc2)cc2c1[nH]c1ccccc12
IC50 [1]: 20.8 µM
IC50 at 72 h [2]: > 50 µM
selectivity ratio [3]: > 2.4

O=C(NCc1ccc(O)cc1)c1cc2c([nH]c3ccccc32)c(C(=O)c2ccc(O)cc2)n1
IC50 [1]: > 50 µM
IC50 at 72 h [2]: > 50 µM

CC(=O)c1nc(C(=O)NCCc2ccccc2)cc2c1[nH]c1ccccc12
IC50 [1]: > 50 µM
IC50 at 72 h [2]: > 50 µM

CC(=O)c1nc(C(=O)NCCc2c[nH]c3ccccc23)cc2c1[nH]c1ccccc12 [MARINACARBOLINE D]
IC50 [1]: 7.71 µM
IC50 at 72 h [2]: 27.2 µM
selectivity ratio [3]: 3.53
IC50 [4]: 8.21 µM

CCCCNC(=O)c1cc2c([nH]c3ccccc32)c(C(C)=O)n1
IC50 [1]: > 50 µM
IC50 at 72 h [2]: > 50 µM

CC(=O)c1nc(C(=O)NCc2ccc(O)cc2)cc2c1[nH]c1ccccc12
IC50 [1]: 3.51 µM
IC50 at 72 h [2]: > 50 µM
selectivity ratio [3]: > 14.2
IC50 [4]: 3.66 µM

CC(=O)c1nc(C(=O)NCCc2ccc(O)cc2)cc2c1[nH]c1ccccc12
IC50 [1]: > 50 µM
IC50 at 72 h [2]: > 50 µM

COc1ccc(CNC(=O)c2cc3c([nH]c4ccccc43)c(C(C)=O)n2)cc1
IC50 [1]: 16.8 µM
IC50 at 72 h [2]: > 50 µM
selectivity ratio [3]: > 2.97

COc1cc([C@@H]2c3cc4c(cc3[C@@H](O[C@@H]3O[C@@H]5CO[C@@H](C)O[C@H]5[C@H](O)[C@H]3O)[C@H]3COC(=O)[C@H]23)OCO4)cc(OC)c1O [ETOPOSIDE]
IC50 [1]: 3.66 µM
IC50 at 72 h [2]: 13.5 µM
selectivity ratio [3]: 3.68

COc1ccc(NC(=O)c2cc3c([nH]c4ccccc43)c(C(C)=O)n2)cc1
IC50 [1]: > 50 µM
IC50 at 72 h [2]: > 50 µM

CC(=O)c1nc(C(=O)NCc2ccccc2)cc2c1[nH]c1ccccc12
IC50 [1]: > 50 µM
IC50 at 72 h [2]: > 50 µM

CCCN(CCC)C(=O)c1cc2c([nH]c3ccccc32)c(C(C)=O)n1
IC50 [1]: > 50 µM
IC50 at 72 h [2]: > 50 µM

CC(=O)c1nc(C(=O)NC(C)C)cc2c1[nH]c1ccccc12
IC50 [1]: 37.3 µM
IC50 at 72 h [2]: > 50 µM
selectivity ratio [3]: > 1.34

CC(=O)c1nc(C(=O)N(C)C)cc2c1[nH]c1ccccc12
IC50 [1]: > 50 µM
IC50 at 72 h [2]: > 50 µM

Cc1ccc(-c2nc(C(=O)NCCc3c[nH]c4ccccc34)cc3c2[nH]c2ccccc23)cc1
IC50 [1]: 6.89 µM
IC50 at 72 h [2]: 42 µM
selectivity ratio [3]: 6.1

O=C(NCCc1c[nH]c2ccccc12)c1cc2c([nH]c3ccccc32)c(C(=O)c2cccc(Br)c2)n1
IC50 [1]: > 50 µM
IC50 at 72 h [2]: > 50 µM

CC(=O)c1nc(C(=O)NCCc2c[nH]c3ccc(Cl)cc23)cc2c1[nH]c1ccccc12
IC50 [1]: 5.94 µM
IC50 at 72 h [2]: 36.5 µM
selectivity ratio [3]: 6.14

CC(=O)c1nc(C(=O)Nc2ccc(N)cc2)cc2c1[nH]c1ccccc12
IC50 [1]: 10.8 µM
IC50 at 72 h [2]: > 50 µM
selectivity ratio [3]: > 4.63

CC(=O)c1nc(C(=O)NCc2ccc(C(C)(C)C)cc2)cc2c1[nH]c1ccccc12
IC50 [1]: 34.2 µM
IC50 at 72 h [2]: > 50 µM
selectivity ratio [3]: > 1.46

O=C(NCCc1c[nH]c2ccccc12)c1cc2c([nH]c3ccccc32)c(C(=O)c2ccc(Cl)cc2)n1
IC50 [1]: 14.7 µM
IC50 at 72 h [2]: > 50 µM
selectivity ratio [3]: > 3.4

O=C(NCCc1c[nH]c2ccccc12)c1cc2c([nH]c3ccccc32)c(-c2ccc(Br)cc2)n1
IC50 [1]: 7.06 µM
IC50 at 72 h [2]: 48.8 µM
selectivity ratio [3]: 6.19
IC50 [4]: 6.81 µM
inhibition [5]: Active

CC(=O)O[C@H]1C(=O)[C@@]2(C)[C@H]([C@H](OC(=O)c3ccccc3)[C@]3(O)C[C@H](OC(=O)[C@H](O)[C@@H](NC(=O)c4ccccc4)c4ccccc4)C(C)=C1C3(C)C)[C@]1(OC(C)=O)CO[C@@H]1C[C@@H]2O [PACLITAXEL]
IC50 [6]: 4.68 µM
Activity [7]: inactive
IC50 [8]: 0.07 µM

CC(=O)c1nc(C(=O)NCc2cccc(O)c2)cc2c1[nH]c1ccccc12
IC50 [1]: 27.7 µM
IC50 at 72 h [2]: > 50 µM
selectivity ratio [3]: > 1.81

CC(=O)c1nc(C(=O)NCc2ccc(N)cc2)cc2c1[nH]c1ccccc12
IC50 [1]: 16.3 µM
IC50 at 72 h [2]: > 50 µM
selectivity ratio [3]: > 3.07
IC50 [4]: 15.5 µM

CC(=O)c1nc(C(=O)NCc2ccc(F)cc2)cc2c1[nH]c1ccccc12
IC50 [1]: 24.7 µM
IC50 at 72 h [2]: > 50 µM
selectivity ratio [3]: > 2.02

O=C(NCCc1c[nH]c2ccccc12)c1cc2c([nH]c3ccccc32)c(-c2ccc(O)cc2)n1
IC50 [1]: 5.68 µM
IC50 at 72 h [2]: 46.3 µM
selectivity ratio [3]: 8.15

O=C(CCCC[C@@H]1SC[C@@H]2NC(=O)N[C@@H]21)NCCn1cc(COc2ccc3[nH]c4c(C(=O)c5ccc(Br)cc5)nc(C(=O)NCCc5c[nH]c6ccccc56)cc4c3c2)nn1
Activity [9]: Active

CC(=O)c1nc(C(=O)NCc2ccc(Cl)cc2)cc2c1[nH]c1ccccc12
IC50 [1]: 48.3 µM
IC50 at 72 h [2]: > 50 µM
selectivity ratio [3]: > 1.04

CC(=O)c1nc(C(=O)NCc2ccccc2O)cc2c1[nH]c1ccccc12
IC50 [1]: 10.3 µM
IC50 at 72 h [2]: 38.3 µM
selectivity ratio [3]: 3.7

CC(=O)c1nc(C(=O)O)cc2c1[nH]c1ccccc12
IC50 [1]: > 50 µM
IC50 at 72 h [2]: > 50 µM

CC(=O)c1nc(C(=O)NCCCN(C)C)cc2c1[nH]c1ccccc12
IC50 [1]: 11.3 µM
IC50 at 72 h [2]: > 50 µM
selectivity ratio [3]: > 4.41

CC(=O)c1nc(C(=O)OCCc2c[nH]c3ccccc23)cc2c1[nH]c1ccccc12
IC50 [1]: 9.52 µM
IC50 at 72 h [2]: 38.3 µM
selectivity ratio [3]: 4.02
IC50 [4]: 8.48 µM

O=C(NCCc1c[nH]c2ccccc12)c1cc2c([nH]c3ccccc32)c(-c2ccccc2)n1
IC50 [1]: 19.2 µM
IC50 at 72 h [2]: > 50 µM
selectivity ratio [3]: > 2.6

CNC(=O)c1cc2c([nH]c3ccccc32)c(C(C)=O)n1
IC50 [1]: > 50 µM
IC50 at 72 h [2]: > 50 µM

CCCC(=O)c1nc(C(=O)NCCc2c[nH]c3ccccc23)cc2c1[nH]c1ccccc12
IC50 [1]: > 50 µM
IC50 at 72 h [2]: > 50 µM

COC(=O)c1cc2c([nH]c3ccccc32)c(C(C)=O)n1
IC50 [1]: > 50 µM
IC50 at 72 h [2]: > 50 µM

CC(=O)c1nc(C(=O)Nc2ccc3[nH]ccc3c2)cc2c1[nH]c1ccccc12
IC50 [1]: 6.98 µM
IC50 at 72 h [2]: 48.2 µM
selectivity ratio [3]: 6.91

CC(=O)c1nc(C(=O)NCc2c[nH]c3ccccc23)cc2c1[nH]c1ccccc12
IC50 [1]: 14.3 µM
IC50 at 72 h [2]: > 50 µM
selectivity ratio [3]: > 3.51

O=C(NCCc1c[nH]c2ccccc12)c1cc2c([nH]c3ccccc32)c(C(=O)c2ccccc2Br)n1
IC50 [1]: > 50 µM
IC50 at 72 h [2]: > 50 µM

CC(=O)c1nc(C(=O)NCCc2c(C)[nH]c3ccccc23)cc2c1[nH]c1ccccc12
IC50 [1]: 11.3 µM
IC50 at 72 h [2]: 41.9 µM
selectivity ratio [3]: 3.71

O=C(NCCc1c[nH]c2ccccc12)c1cc2c([nH]c3ccccc32)c(C(=O)c2ccc(O)cc2)n1
IC50 [1]: 6.82 µM
IC50 at 72 h [2]: 39.3 µM
selectivity ratio [3]: 5.76
IC50 [4]: 6.62 µM
inhibition [5]: Active

CC(=O)c1nc(C(=O)Nc2ccc(C(F)(F)F)cc2)cc2c1[nH]c1ccccc12
IC50 [1]: > 50 µM
IC50 at 72 h [2]: > 50 µM

Cc1ccc(C(=O)c2nc(C(=O)NCCc3c[nH]c4ccccc34)cc3c2[nH]c2ccccc23)cc1
IC50 [1]: 8.29 µM
IC50 at 72 h [2]: 41.2 µM
selectivity ratio [3]: 4.98

CC(=O)c1nc(C(=O)NCCCO)cc2c1[nH]c1ccccc12
IC50 [1]: 16.5 µM
IC50 at 72 h [2]: 41.2 µM
selectivity ratio [3]: 2.5

CC(=O)c1nc(C(=O)NCc2ccc(C#N)cc2)cc2c1[nH]c1ccccc12
IC50 [1]: > 50 µM
IC50 at 72 h [2]: > 50 µM

O=C(NCc1ccc(O)cc1)c1cc2c([nH]c3ccccc32)c(C(=O)c2ccc(Br)cc2)n1
IC50 [1]: > 50 µM
IC50 at 72 h [2]: > 50 µM

CC(=O)c1nc(C(=O)Nc2ccccc2)cc2c1[nH]c1ccccc12
IC50 [1]: > 50 µM
IC50 at 72 h [2]: > 50 µM

O=C(NCCc1c[nH]c2ccccc12)c1cc2c([nH]c3ccccc32)c(C(=O)c2ccccc2)n1
IC50 [1]: 21.2 µM
IC50 at 72 h [2]: 31.9 µM
selectivity ratio [3]: 1.5

COc1ccc2[nH]cc(CCNC(=O)c3cc4c([nH]c5ccccc54)c(C(C)=O)n3)c2c1
IC50 [1]: 10.8 µM
IC50 at 72 h [2]: 39.3 µM
selectivity ratio [3]: 3.62

CC(=O)c1nc(C(=O)NCCCc2c[nH]c3ccccc23)cc2c1[nH]c1ccccc12
IC50 [1]: > 50 µM
IC50 at 72 h [2]: > 50 µM

COc1ccc(CCNC(=O)c2cc3c([nH]c4ccccc43)c(C(C)=O)n2)cc1 [MARINACARBOLINE A]
IC50 [1]: > 50 µM
IC50 at 72 h [2]: > 50 µM
